Assay results reported in patent US8106055B2, “Substituted amide compounds” (Gruenenthal GmbH, priority 2007, dated 2012).
Read-outs that look alike come from different tables or passages of the source.

How the values were obtained:
human μ opiate receptor = target: T1, human μ opiate receptor (Homo sapiens, UniProt P35372); assay: Affinity for the human μ opiate receptor ([3H]-naloxone displacement, CHO-K1 receptor membrane preparation, SPA); type: binding; conditions: 1.5 h, Table 3, to be read in the same way as Table 1; test concentration 1 μM; read-out: μ
T1 construct: purchased PerkinElmer Life Sciences, Zaventem, Belgium RB-HOM; host or cells: CHO-K1 cells (membrane preparation)
Outline: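 Test compounds, 1 nmol/l [3H]-naloxone and CHO-K1 membranes bearing the human μ opiate receptor are combined with WGA-SPA beads. After 90 minutes at room temperature, plates are centrifuged and radioactivity counted. Specific-binding inhibition at 1 μmol/l is given in percent.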

[1] = target: T2, human bradykinin 1 receptor (B1R) (Homo sapiens, UniProt P46663); assay: Functional investigation on the human bradykinin 1 receptor (B1R), Ca2+ FLIPR assay in CHO K1 hB1R cells; type: cell-based; conditions: CHO-K1, B1R antagonism human, test substance 10 μM, read-out: B1R Ant. h [10 μM] % Inhibition
T2 construct: expressed in transfected cells; host or cells: CHO K1 cells
T2 sequence (P46663 1-353): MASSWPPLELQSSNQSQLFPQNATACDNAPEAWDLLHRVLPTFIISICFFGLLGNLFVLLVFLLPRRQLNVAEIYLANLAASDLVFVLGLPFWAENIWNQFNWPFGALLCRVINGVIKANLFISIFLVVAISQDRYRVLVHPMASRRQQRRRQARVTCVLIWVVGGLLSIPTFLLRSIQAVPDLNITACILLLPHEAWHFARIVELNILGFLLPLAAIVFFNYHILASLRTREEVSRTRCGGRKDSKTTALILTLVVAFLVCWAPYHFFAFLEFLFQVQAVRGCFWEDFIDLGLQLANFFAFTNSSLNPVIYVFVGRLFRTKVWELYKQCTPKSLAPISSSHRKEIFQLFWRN
Outline: (§1)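 Fluo-4 Ca2+ readout, peak fluorescence. Stable CHO K1 transfectants; compound pre-incubated 10-20 min, then EC80 agonist—Lys-Des-Arg9-BK for hB1R, Des-Arg9-BK for rB1R. % inhibition vs maximal inhibition; IC50 from multiple concentrations, duplicate/triplicate, ≥2 independent runs.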

[2] = target: T3, bradykinin 1 receptor (B1R) of the rat (Rattus norvegicus, UniProt P97583); assay: Functional investigation on the rat bradykinin 1 receptor (B1R), Ca2+ FLIPR assay in CHO K1 rB1R cells; type: cell-based; conditions: CHO-K1, B1R antagonism rat, test substance 10 μM, read-out: B1R Ant. r [10 μM] % Inhibition
T3 construct: expressed in transfected cells; host or cells: CHO K1 cells
T3 sequence (P97583 1-337): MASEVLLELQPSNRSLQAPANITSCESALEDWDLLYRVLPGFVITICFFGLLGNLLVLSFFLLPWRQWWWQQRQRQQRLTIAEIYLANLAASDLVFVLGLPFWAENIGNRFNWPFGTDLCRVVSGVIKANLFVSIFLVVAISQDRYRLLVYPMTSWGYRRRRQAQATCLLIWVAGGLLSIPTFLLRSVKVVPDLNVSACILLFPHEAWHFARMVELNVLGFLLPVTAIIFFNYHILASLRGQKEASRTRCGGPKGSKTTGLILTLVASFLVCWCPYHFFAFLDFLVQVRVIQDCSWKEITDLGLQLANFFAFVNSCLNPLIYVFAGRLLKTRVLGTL
Outline: as §1

[3] = % inhibition compared with the maximum achievable inhibition

T1 sequence (P35372 whole entry): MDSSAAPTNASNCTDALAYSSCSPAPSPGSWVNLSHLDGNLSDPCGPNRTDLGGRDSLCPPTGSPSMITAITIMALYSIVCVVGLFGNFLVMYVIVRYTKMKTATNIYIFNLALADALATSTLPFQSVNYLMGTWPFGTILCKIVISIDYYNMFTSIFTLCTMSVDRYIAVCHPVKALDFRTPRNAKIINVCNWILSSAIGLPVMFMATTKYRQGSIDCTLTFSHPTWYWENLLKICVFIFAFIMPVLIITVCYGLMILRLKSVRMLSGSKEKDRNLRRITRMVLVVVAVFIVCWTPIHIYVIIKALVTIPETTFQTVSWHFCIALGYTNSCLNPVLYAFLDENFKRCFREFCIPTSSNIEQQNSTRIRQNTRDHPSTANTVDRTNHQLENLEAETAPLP

| Structure (SMILES) | inhibition at 1 µM (human μ opiate receptor) [%] | inhibition at 10 µM ([1]; Ca2+ FLIPR, CHO K1 hB1R cells) [%] | inhibition at 10 µM ([2]; Ca2+ FLIPR, CHO K1 rB1R cells) [%] | inhibition at 10 µM [1, 3] [%] | inhibition at 10 µM [2, 3] [%] |
| --- | --- | --- | --- | --- | --- |
| CN(CCOCC(=O)NCC1CCC(C(CCc2ccccc2)N2CCOCC2)CC1)S(=O)(=O)c1c(Cl)cc(C(F)(F)F)cc1Cl (stereo not drawn) [Example 728, 2-(2-(2,6-dichloro-N-methyl-4-(trifluoromethyl)phenylsulfonamido)ethoxy)-N-((4-(1-morpholino-3-phenylpropyl)cyclohexyl)methyl)acetamide] | 12 | -9 | 9 | – | – |
| CN(CCOCC(=O)NCC1CCC(C(CCc2ccccc2)N2CCOCC2)CC1)S(=O)(=O)c1ccc(Cl)cc1Cl (stereo not drawn) [Example 716, 2-(2-(2,4-dichloro-N-methylphenylsulfonamido)ethoxy)-N-((4-(1-morpholino-3-phenylpropyl)cyclohexyl)methyl)acetamide] | 13 | 59 | 31 | – | – |
| COc1cc(C)c(S(=O)(=O)N2CCCC2COCC(=O)NC2CCC(C(CCc3ccccc3)N3CCCCC3)CC2)c(C)c1 (stereo not drawn) [Example 677, 2-((1-(4-methoxy-2,6-dimethylphenylsulfonyl)pyrrolidin-2-yl)methoxy)-N-(4-(3-phenyl-1-(piperidin-1-yl)propyl)cyclohexyl)acetamide] | 60 | 104 | 107 | – | – |
| COc1cc(C)c(S(=O)(=O)N(C)CCOCC(=O)NC2CCC(C(CCc3ccccc3)N3CCOCC3)CC2)c(C)c1 (stereo not drawn) [Example 662, 2-(2-(4-methoxy-N,2,6-trimethylphenylsulfonamido)ethoxy)-N-(4-(1-morpholino-3-phenylpropyl)cyclohexyl)acetamide] | 3 | 104 | 101 | – | – |
| COc1cc(C)c(S(=O)(=O)N2CCC(OCC(=O)NC3CCC(C(CCc4ccccc4)N4CCOCC4)CC3)C2)c(C)c1 (stereo not drawn) [Example 668, 2-(1-(4-methoxy-2,6-dimethylphenylsulfonyl)pyrrolidin-3-yloxy)-N-(4-(1-morpholino-3-phenylpropyl)cyclohexyl)acetamide] | 10 | 88 | 64 | – | – |
| O=C(COCC1CCCCN1S(=O)(=O)c1c(Cl)cc(Cl)cc1Cl)NCC1CCC(C(c2ccccc2)N2CCCC2)CC1 (stereo not drawn) [Example 658, N-((4-(phenyl(pyrrolidin-1-yl)methyl)cyclohexyl)methyl)-2-((1-(2,4,6-trichlorophenylsulfonyl)piperidin-2-yl)methoxy)acetamide] | 88 | 104 | 105 | – | – |
| CN1CCN(C(c2ccccc2)C2CCC(NC(=O)COCCN(C)S(=O)(=O)c3c(Cl)cc(Cl)cc3Cl)CC2)CC1 (stereo not drawn) [Example 714, N-(4-((4-methylpiperazin-1-yl)(phenyl)methyl)cyclohexyl)-2-(2-(2,4,6-trichloro-N-methylphenylsulfonamido)ethoxy)acetamide] | 52 | 104 | 64 | – | – |
| CN(CCOCC(=O)NCC1CCC(C(c2ccccc2)N2CCCC2)CC1)S(=O)(=O)c1c(Cl)cccc1Cl (stereo not drawn) [Example 643, 2-(2-(2,6-dichloro-N-methylphenylsulfonamido)ethoxy)-N-((4-(phenyl(pyrrolidin-1-yl)methyl)cyclohexyl)methyl)acetamide] | 76 | 102 | 62 | – | – |
| COc1cc(C)c(S(=O)(=O)N2CCCCC2COCC(=O)N2CCC(C(Cc3ccccc3)N3CCN(C)CC3)CC2)c(C)c1 (stereo not drawn) [Example 802, 2-((1-(4-methoxy-2,6-dimethylphenylsulfonyl)piperidin-2-yl)methoxy)-1-(4-(1-(4-methylpiperazin-1-yl)-2-phenylethyl)piperidin-1-yl)ethanone] | 27 | – | – | 106 | 97 |
| O=C(COCC1CCCCN1S(=O)(=O)c1c(Cl)cc(Cl)cc1Cl)NCC1CCC(C(CCc2ccccc2)N2CCOCC2)CC1 (stereo not drawn) [Example 754, N-((4-(1-morpholino-3-phenylpropyl)cyclohexyl)methyl)-2-((1-(2,4,6-trichlorophenylsulfonyl)piperidin-2-yl)methoxy)acetamide] | 2 | 47 | 76 | – | – |
| COc1cc(C)c(S(=O)(=O)N2CCCCC2COCC(=O)NCC2CCC(C(c3ccccc3)N3CCCC3)CC2)c(C)c1 (stereo not drawn) [Example 657, 2-((1-(4-methoxy-2,6-dimethylphenylsulfonyl)piperidin-2-yl)methoxy)-N-((4-(phenyl(pyrrolidin-1-yl)methyl)cyclohexyl)methyl)acetamide] | 84 | 104 | 105 | – | – |
| COc1cc(C)c(S(=O)(=O)N(C)CCOCC(=O)N2CCC(C(c3ccc(F)cc3)N3CCN(C)CC3)CC2)c(C)c1 (stereo not drawn) [Example 804, N-(2-(2-(4-((4-fluorophenyl)(4-methylpiperazin-1-yl)methyl)piperidin-1-yl)-2-oxoethoxy)ethyl)-4-methoxy-N,2,6-trimethylbenzenesulfonamide] | 9 | – | – | 105 | 100 |
| COc1cc(C)c(S(=O)(=O)N2CCCCC2COCC(=O)N2CCC(C(c3ccc(F)cc3)N3CCN(C)CC3)CC2)c(C)c1 (stereo not drawn) [Example 805, 1-(4-((4-fluorophenyl)(4-methylpiperazin-1-yl)methyl)piperidin-1-yl)-2-((1-(4-methoxy-2,6-dimethylphenylsulfonyl)piperidin-2-yl)methoxy)ethanone] | 4 | – | – | 103 | 99 |
| O=C(COCC1CCCN(S(=O)(=O)c2c(Cl)cc(Cl)cc2Cl)C1)NC1CCC(C(CCc2ccccc2)N2CCOCC2)CC1 (stereo not drawn) [Example 741, N-(4-(1-morpholino-3-phenylpropyl)cyclohexyl)-2-((1-(2,4,6-trichlorophenylsulfonyl)piperidin-3-yl)methoxy)acetamide] | 16 | -5 | 46 | – | – |
| O=C(COCC1CCCN(S(=O)(=O)c2c(Cl)cc(Cl)cc2Cl)C1)NC1CCC(C(c2ccccc2)N2CCOCC2)CC1 (stereo not drawn) [Example 703, N-(4-(morpholino(phenyl)methyl)cyclohexyl)-2-((1-(2,4,6-trichlorophenylsulfonyl)piperidin-3-yl)methoxy)acetamide] | 19 | -4 | 37 | – | – |
| COc1cc(C)c(S(=O)(=O)N(C)CCOCC(=O)NCC2CCC(C(c3ccccc3)N3CCOCC3)CC2)c(C)c1 (stereo not drawn) [Example 718, 2-(2-(4-methoxy-N,2,6-trimethylphenylsulfonamido)ethoxy)-N-((4-(morpholino(phenyl)methyl)cyclohexyl)methyl)acetamide] | 4 | 105 | 96 | – | – |
| O=C(COCC1CCCN(S(=O)(=O)c2c(Cl)cc(Cl)cc2Cl)C1)NCC1CCC(C(c2ccccc2)N2CCCC2)CC1 (stereo not drawn) [Example 659, N-((4-(phenyl(pyrrolidin-1-yl)methyl)cyclohexyl)methyl)-2-((1-(2,4,6-trichlorophenylsulfonyl)piperidin-3-yl)methoxy)acetamide] | 79 | 50 | 100 | – | – |
| COc1cc(C)c(S(=O)(=O)N2CCCC2COCC(=O)NCC2CCC(C(c3ccccc3)N3CCCC3)CC2)c(C)c1 (stereo not drawn) [Example 649, 2-((1-(4-methoxy-2,6-dimethylphenylsulfonyl)pyrrolidin-2-yl)methoxy)-N-((4-(phenyl(pyrrolidin-1-yl)methyl)cyclohexyl)methyl)acetamide] | 67 | 105 | 106 | – | – |
| O=C(COCC1CCCN(S(=O)(=O)c2c(Cl)cc(Cl)cc2Cl)C1)NCC1CCC(C(CCc2ccccc2)N2CCOCC2)CC1 (stereo not drawn) [Example 758, N-((4-(1-morpholino-3-phenylpropyl)cyclohexyl)methyl)-2-((1-(2,4,6-trichlorophenylsulfonyl)piperidin-3-yl)methoxy)acetamide] | 25 | 41 | 107 | – | – |
